From patent US6987114B1, “Antiviral pyrimidinedione derivatives and process for the preparation thereof” (Samjin Pharmaceutical Co., Ltd, priority 1999, dated 2006) come the findings set out here.

In data set [1] the test system is mock-infected MT-4 cells. In words: Cytotoxicity based on viability of mock-infected host cells (MTT method). The data set is classed as cell-based. As for the experimental part: (§1) MT-4 cells were suspended in culture media at 2.5×10^5 cells/ml and infected with 1000 CCID50 (50% cell culture infective dose) of HIV. Immediately after virus infection, 100 μl of cell suspension was brought into each well of a flat-bottomed microtitray containing various concentrations of the test compounds. After 4 or 5 days incubation at 37° C., efficacy of the compounds was determined by the MTT method. Cytotoxicity of the compounds was assessed in parallel with their antiviral activity, based on viability of mock-infected host cells as determined by the MTT method.
(In general: Tetrazolium dyes change colour on reduction, which living cells bring about.)

Data set [2] concerns HIV. The data set can be described thus: microbe, parasite or virus in culture. It counts as cell-based. How it is done: Anti-HIV activity tests in vitro of the compounds according to the present invention were performed as described in J. Med. Chem, 34, 357, 1991. Inhibition by the compounds of virus-induced cytotoxic effect in MT-4 cells was measured as follows.
as §1

Where [3] appears, read: mock-infected MT-4 cells, MTT method, 4 or 5 days at 37° C.
[4] abbreviates: Human immunodeficiency virus 1, MT4, HIV-infected MT-4 cells, MTT method, 4 or 5 days at 37° C., read-out: ED50 (the source's name).
Where [5] appears, read: Human immunodeficiency virus 1, MT4, read-out: ED50.
Setting [6] is: HIV-infected MT-4 cells, MTT method, 4 or 5 days at 37° C.

Converted amounts (≈) assume the structure as drawn. Read-outs that look alike come from different tables or passages of the source.

For orientation: melting point means the temperature of the solid-liquid transition. As for `Cc1cc(C)cc(Oc2c(C(C)C)c(=O)[nH]c(=O)n2Cc2ccc(OC(F)(F)F)cc2)c1` [Example 34, 1-(4-Trifluoromethoxybenzyl)-5-isopropyl-6-(3,5-dimethylphenoxy)-2,4-pyrimidinedione], the melting point is 173 to 175 °C. Also, the CD50 in data set [1] (setting [3]) stood at 8.06 µg/mL. Further, the EC50 in data set [2] (setting [4]) came to 0.045 µg/mL (≈ 0.1 µM).
In turn, `CCc1c(C(=O)c2cc(C)cc(C)c2)n(Cc2cccnc2)c(=O)[nH]c1=O` [Example 119, 1-(Pyridin-3-ylmethyl)-5-ethyl-6-(3,5-dimethylbenzoyl)-2,4-pyrimidinedione] came in with a melting point of 170 to 172 °C. In data set [1] (setting [3]), this compound displayed a CD50 of 39.00 µg/mL. Besides, the EC50 in data set [2] (setting [5]) was 0.0038 µg/mL (≈ 0.0105 µM).
Turning to `CCc1c(C(=O)c2cc(C)cc(C)c2)n(Cc2cccc(OC)c2)c(=O)[nH]c1=O` [Example 29, 1-(3-Methoxybenzyl)-5-ethyl-6-(3,5-dimethylbenzoyl)-2,4-pyrimidinedione], the melting point was 185 to 187 °C. The compound also registered a CD50 in data set [1] (setting [3]) of 7.22 µg/mL. Besides, the EC50 in data set [2] (setting [4]) stood at 0.003 µg/mL (≈ 0.00764 µM).
Taken in the same sequence, the figures for `Cc1cc(C)cc(Oc2c(C(C)C)c(=O)[nH]c(=O)n2CC2CC2)c1` [Example 4, 1-(Cyclopropyl)methyl-5-isopropyl-6-(3,5-dimethylphenoxy)-2,4-pyrimidinedione] were 146 to 148 °C, 12.70 µg/mL and less than 0.0002 µg/mL.
Taken in the same sequence, the figures for `CCc1c(Oc2cc(C)cc(C)c2)n(Cc2cccc(Br)n2)c(=O)[nH]c1=O` [Example 127, 1-(2-Bromopyridin-6-ylmethyl)-5-ethyl-6-(3,5-dimethylphenoxy)-2,4-pyrimidinedione] were 201 to 203 °C, 9.46 µg/mL and 0.194 µg/mL (≈ 0.451 µM).
Compound `CCc1c(Sc2cc(C)cc(C)c2)n(Cc2cccc(OC)c2)c(=O)[nH]c1=O` [Example 25, 1-(3-Methoxybenzyl)-5-ethyl-6-(3,5-dimethylphenyl)thio-2,4-pyrimidinedione] came in with a melting point of 130 to 131 °C. In data set [1] (setting [3]), this compound yielded a CD50 of 9.04 µg/mL. Also, in data set [2] (setting [4]), the EC50 is 0.003 µg/mL (≈ 0.00757 µM).
Consider `CCc1c(C(=O)c2cc(C)cc(C)c2)n(Cc2cc(Cl)cc(Cl)c2)c(=O)[nH]c1=O` [Example 83, 1-(3,5-Dichlorobenzyl)-5-ethyl-6-(3,5-dimethylbenzoyl)-2,4-pyrimidinedione], for which the melting point lay within 223 to 225 °C. In addition, the CD50 in data set [1] (setting [3]) worked out at 3.10 µg/mL. The EC50 in data set [2] (setting [5]) is 0.021 µg/mL (≈ 0.0487 µM).
Turning to `Cc1cc(C)cc(Oc2c(C(C)C)c(=O)[nH]c(=O)n2Cc2cc(Cl)cc(Cl)c2)c1` [Example 82, 1-(3,5-Dichlorobenzyl)-5-isopropyl-6-(3,5-dimethylphenoxy)-2,4-pyrimidinedione], the melting point fell in the range of 234 to 236 °C. In addition, in data set [1] (setting [3]), the CD50 was found to be 36.15 µg/mL. Besides, in data set [2] (setting [5]), the EC50 was determined as 0.173 µg/mL (≈ 0.399 µM).
`CCc1c(Oc2cc(C)cc(C)c2)n(Cn2nnc3ccccc32)c(=O)[nH]c1=O` [Example 141, 1-(1H-benzotriazol-1-ylmethyl)-5-ethyl-6-(3,5-dimethylphenoxy)-2,4-pyrimidinedione] showed a melting point of 248 to 249 °C. In data set [1] (setting [3]), the CD50 came out at 27.60 µg/mL. In addition, the EC50 in data set [2] (setting [4]) amounted to 0.11 µg/mL (≈ 0.281 µM).
In turn, `CCc1c(C(=O)c2cc(C)cc(C)c2)n(Cc2cccc(Cl)n2)c(=O)[nH]c1=O` [Example 125, 1-(2-Chloropyridin-6-ylmethyl)-5-ethyl-6-(3,5-dimethyl-benzoyl)-2,4-pyrimidinedione] displayed a melting point of 196 to 198 °C. This compound displayed a CD50 in data set [1] (setting [3]) of 9.02 µg/mL. Moreover, the EC50 in data set [2] (setting [4]) turned out to be 0.015 µg/mL (≈ 0.0377 µM).
Taken in the same sequence, the figures for `CCc1c(Oc2cc(C)cc(C)c2)n(Cc2ccccn2)c(=O)[nH]c1=O` [Example 111, 1-(Pyridin-2-ylmethyl)-5-ethyl-6-(3,5-dimethylphenoxy)-2,4-pyrimidinedione] were 215 to 217 °C, greater than 100.00 µg/mL and 0.081 µg/mL (≈ 0.231 µM).
`CCc1c(Sc2cc(C)cc(C)c2)n(Cc2cccc(Cl)n2)c(=O)[nH]c1=O` [Example 121, 1-(2-Chloropyridin-6-ylmethyl)-5-ethyl-6-(3,5-dimethyl-phenyl)thio-2,4-pyrimidinedione] returned a melting point of 145 to 148 °C. Also, the CD50 in data set [1] (setting [3]) was 7.72 µg/mL. Further, in data set [2] (setting [4]), the EC50 was greater than 7.72 µg/mL.
Consider `CCc1c(Sc2cc(C)cc(C)c2)n(Cc2ccc3c(c2)C(=O)c2ccccc2C3=O)c(=O)[nH]c1=O` [Example 103, 1-(Anthraquinon-2-ylmethyl)-5-ethyl-6-(3,5-dimethyl-phenyl)thio-2,4-pyrimidinedione], for which the melting point was in the range of 195 to 197 °C. The CD50 in data set [1] (setting [3]) amounted to 85.19 µg/mL. Further, the EC50 in data set [2] (setting [4]) is greater than 85.2 µg/mL.
The compound `Cc1cc(C)cc(Sc2c(C(C)C)c(=O)[nH]c(=O)n2Cc2cccc(Cl)n2)c1` [Example 122, 1-(2-Chloropyridin-6-ylmethyl)-5-isopropyl-6-(3,5-dimethylphenyl)thio-2,4-pyrimidinedione] gave a melting point of 159 to 161 °C. In addition, the CD50 in data set [1] (setting [3]) came out at 2.80 µg/mL. Moreover, the EC50 in data set [2] (setting [4]) was greater than 2.8 µg/mL.
On to `Cc1cc(C)cc(C(=O)c2c(C(C)C)c(=O)[nH]c(=O)n2Cc2cccnc2)c1` [Example 120, 1-(Pyridin-3-ylmethyl)-5-isopropyl-6-(3,5-dimethylbenzoyl)-2,4-pyrimidinedione], for which the melting point is 178 to 180 °C. This compound also yielded a CD50 in data set [1] (setting [3]) of 8.80 µg/mL. Further, in data set [2] (setting [5]), the EC50 came out at 0.002 µg/mL (≈ 0.0053 µM).
`COC(=O)c1ccoc1Cn1c(C(=O)c2cc(C)cc(C)c2)c(C(C)C)c(=O)[nH]c1=O` [Example 156, 1-(3-Methoxycarbonyl-2-furanylmethyl)-5-isopropyl-6-(3,5-dimethyl-benzoyl)-2,4-pyrimidinedione]: the melting point was in the range of 180 to 183 °C. In addition, the CD50 in data set [1] (setting [3]) is 10.92 µg/mL. Besides, the EC50 in data set [2] (setting [4]) amounted to 0.014 µg/mL (≈ 0.033 µM).
On to `CCc1c(Sc2cc(C)cc(C)c2)n(Cc2cc(Br)cc(Br)c2)c(=O)[nH]c1=O` [Example 85, 1-(3,5-Dibromobenzyl)-5-ethyl-6-(3,5-dimethylphenyl)thio-2,4-pyrimidinedione], for which the melting point lay in the range of 214 to 215 °C. In data set [1] (setting [3]), the CD50 stood at 13.17 µg/mL. Besides, in data set [2] (setting [5]), the EC50 was determined as 0.13 µg/mL (≈ 0.248 µM).
As for `Cc1cc(C)cc(Sc2c(C(C)C)c(=O)[nH]c(=O)n2Cc2cc(F)cc(F)c2)c1` [Example 74, 1-(3,5-Difluorobenzyl)-5-isopropyl-6-(3,5-dimethylphenyl)thio-2,4-pyrimidinedione], the melting point was 203 to 205 °C. For the same compound, the CD50 in data set [1] (setting [3]) was found to be 10.50 µg/mL. Also, the EC50 in data set [2] (setting [4]) was found to be 0.013 µg/mL (≈ 0.0312 µM).
Turning to `Cc1cc(C)cc(Cn2c(Oc3cc(C)cc(C)c3)c(C(C)C)c(=O)[nH]c2=O)c1` [Example 52, 1-(3,5-Dimethylbenzyl)-5-isopropyl-6-(3,5-dimethyl-phenoxy)-2,4-pyrimidinedione], the melting point lay within 175 to 177 °C. The CD50 in data set [1] (setting [3]) worked out at 8.20 µg/mL. Besides, the EC50 in data set [2] (setting [5]) stood at 0.098 µg/mL (≈ 0.25 µM).
On to `COC(=O)c1ccoc1Cn1c(Sc2cc(C)cc(C)c2)c(C(C)C)c(=O)[nH]c1=O` [Example 152, 1-(3-Methoxycarbonyl-2-furanylmethyl)-5-isopropyl-6-(3,5-dimethylphenyl)thio-2,4-pyrimidinedione], for which the melting point was 135 to 137 °C. Further, the CD50 in data set [1] (setting [3]) is 9.61 µg/mL. Further, the EC50 in data set [2] (setting [4]) worked out at 0.018 µg/mL (≈ 0.042 µM).
`Cc1cc(C)cc(Sc2c(C(C)C)c(=O)[nH]c(=O)n2Cc2cc(Cl)cc(Cl)c2)c1` [Example 80, 1-(3,5-Dichlorobenzyl)-5-isopropyl-6-(3,5-dimethylphenyl)thio-2,4-pyrimidinedione]: the melting point fell in the range of 194 to 196 °C. Further, the CD50 in data set [1] (setting [3]) amounted to 46.83 µg/mL. The EC50 in data set [2] (setting [5]) turned out to be 0.049 µg/mL (≈ 0.109 µM).
For the compound `CCc1c(Oc2cc(C)cc(C)c2)n(Cc2ccccc2)c(=O)[nH]c1=O` [Example 21, 1-Benzyl-5-ethyl-6-(3,5-dimethylphenoxy)-2,4-pyrimidine-dione], in data set [1] (setting [3]), the CD50 turned out to be 16.58 µg/mL. In addition, in data set [2] (setting [4]), the EC50 was determined as 0.036 µg/mL (≈ 0.103 µM).
Take `CCc1c(Oc2cc(C)cc(C)c2)n(CC2CO2)c(=O)[nH]c1=O` (stereo not drawn) [Example 137, 1-(2,3-Epoxypropyl)-5-ethyl-6-(3,5-dimethylphenoxy)-2,4-pyrimidinedione]: the CD50 in data set [1] (setting [3]) is 40.50 µg/mL. Also, the EC50 in data set [2] (setting [5]) worked out at 1.25 µg/mL (≈ 3.95 µM).
As to `Cc1cc(C)cc(Sc2c(C(C)C)c(=O)[nH]c(=O)n2CC2CC2)c1` [Example 2, 1-(Cyclopropyl)methyl-5-isopropyl-6-(3,5-dimethylphenyl)thio-2,4-pyrimidinedione], in data set [1] (setting [3]), the CD50 is 12.43 µg/mL. For the same compound, the EC50 in data set [2] (setting [4]) was less than 0.0002 µg/mL.
In the case of “1-(2-Naphthalenemethyl)-5-ethyl-6-(3,5-dimethylbenzoyl)-2,4-pyrimidinedione [Example 95]”, the CD50 in data set [1] (setting [3]) was determined as 16.50 µg/mL. Besides, the ED50 in data set [2] (setting [6]) amounted to 0.013 µg/mL.
“1-(Phenacyl)-5-ethyl-6-(3,5-dimethylbenzoyl)-2,425 pyrimidinedione [Example 167]”: the CD50 in data set [1] came to 43.31 µg/mL. This compound displayed an ED50 in data set [2] (setting [6]) of 0.0569 µg/mL.
In turn, “1-(Phenacyl)-5-ethyl-6-(3,5-dimethylphenoxy)-2,415 pyrimidinedione [Example 165]” showed a CD50 in data set [1] of 58.11 µg/mL. In data set [2] (setting [6]), this compound had an ED50 greater than 58.11 µg/mL.
